Experimental data published in publication PMC10107917 (ACS Medicinal Chemistry Letters, 2023).
Bridge positions count the residues as written; N and C are the ends. Peptide text beside a SMILES is read from it.

How the values were obtained:
matriptase-1 (MT1) = target: T1, matriptase-1 (MT1) (Homo sapiens, UniProt Q9Y5Y6); assay: Selectivity assay against matriptase-1; assay type: biochemical; conditions: Figure S1
T1 construct: Recombinant human matriptase-1/ST14 catalytic domain; purchased R&D Systems, USA
T1 sequence (Q9Y5Y6 615-854 limits assumed): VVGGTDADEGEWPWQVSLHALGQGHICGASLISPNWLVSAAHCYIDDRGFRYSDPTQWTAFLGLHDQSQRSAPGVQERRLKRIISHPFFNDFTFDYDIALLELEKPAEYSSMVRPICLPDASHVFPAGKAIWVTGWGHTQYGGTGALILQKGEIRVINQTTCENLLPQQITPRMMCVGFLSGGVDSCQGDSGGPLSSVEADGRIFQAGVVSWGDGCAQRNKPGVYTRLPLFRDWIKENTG
Method: (§1) The selectivities of the strongest furin inhibitors 3, 5, 6, and FI were assessed using commercially available, purified, recombinant proteases, namely, matriptase-1 (MT1) and matriptase-2 (MT2). Both enzymes belong to the type II transmembrane serine proteases, present trypsin-like specificity, and share high structural similarity but differ in biological activity.[33] […]
(§2) The IC50 values (inhibitor concentrations giving 50% inhibition of enzyme activity) were calculated from plots of enzyme activity (% of control sample) versus the inhibitor’s concentration using a four-parameter fit model (GraFit 5.0.12 Erithacus Software Ltd.). The IC50 values were determined from triplicate measurements with at least seven different inhibitor concentrations. The K i values […] were calculated using the Cheng-Prusoff equation, assuming the competitive mode of inhibition, according to the following relationship: IC50 = K i(1+S/Km). All measurements were performed using a Fluostar Omega microplate reader (BMG Labtech, Germany) and 96-well black plates (BRAND, Germany). Recombinant human matriptase-1/ST14 catalytic domain was purchased from R&D Systems, USA. Recombinant human matriptase-2 was obtained from Enzo Life Sciences, Switzerland.
(§3) Soluble human recombinant furin was kindly gifted by Dr Anna Kwiatkowska (group of Prof. Robert Day from Université de Sherbrooke).4
(§4) The following assay buffers were used: […] (matriptase-1 and matriptase-2), pH 7.5 100 mM HEPES with 1 mM CaCl 2 and 1.8 mg/mL BSA (furin). The substrates used in the assays were as follows: for matriptase-1 and matriptase-2 Boc-Gln-Ala-Arg-AMC (Pepta Nova, Germany) in final concentration of 5 µM, for furin […] (Pepta Nova, Germany) in final concentration of 20 µM. Enzymes concentrations were as follows: 1.25 ng/mL of matriptase-1, 1.51 U/mL for matriptase-2, and 1.1 nM for furin. In the case of matriptase-1 and matripase-2 concentrations were calculated according to information provided by the suppliers.
(§5) In short, the tested compounds were added to the appropriate protease in different concentrations and incubated in an assay buffer at 37 °C for 30 min. […] Reactions were monitored for at least 40 min at 37 °C. […] The percentage inhibition of an enzyme was calculated relative to the control sample without an inhibitor. The K m value for furin substrate was determined by incubating the enzyme with its substrate in various concentrations as recommended.5 Plots of the substrate concentration versus the initial reaction velocity were analyzed according to Michaelis-Menten equation using GraFit 5.0.12 Erithacus Software Ltd. A double reciprocal (Lineweaver-Burk) plot was used to determine the Michaelis constant K m value. […]

furin = conditions: cited from earlier work
matriptase-2 (MT2) = target: T2, matriptase-2 (MT2) (Homo sapiens, UniProt Q8IU80); assay: Selectivity assay against matriptase-2; assay type: biochemical; conditions: Figure S1
T2 construct: purchased Enzo Life Sciences, Switzerland
T2 sequence (Q8IU80 1-811): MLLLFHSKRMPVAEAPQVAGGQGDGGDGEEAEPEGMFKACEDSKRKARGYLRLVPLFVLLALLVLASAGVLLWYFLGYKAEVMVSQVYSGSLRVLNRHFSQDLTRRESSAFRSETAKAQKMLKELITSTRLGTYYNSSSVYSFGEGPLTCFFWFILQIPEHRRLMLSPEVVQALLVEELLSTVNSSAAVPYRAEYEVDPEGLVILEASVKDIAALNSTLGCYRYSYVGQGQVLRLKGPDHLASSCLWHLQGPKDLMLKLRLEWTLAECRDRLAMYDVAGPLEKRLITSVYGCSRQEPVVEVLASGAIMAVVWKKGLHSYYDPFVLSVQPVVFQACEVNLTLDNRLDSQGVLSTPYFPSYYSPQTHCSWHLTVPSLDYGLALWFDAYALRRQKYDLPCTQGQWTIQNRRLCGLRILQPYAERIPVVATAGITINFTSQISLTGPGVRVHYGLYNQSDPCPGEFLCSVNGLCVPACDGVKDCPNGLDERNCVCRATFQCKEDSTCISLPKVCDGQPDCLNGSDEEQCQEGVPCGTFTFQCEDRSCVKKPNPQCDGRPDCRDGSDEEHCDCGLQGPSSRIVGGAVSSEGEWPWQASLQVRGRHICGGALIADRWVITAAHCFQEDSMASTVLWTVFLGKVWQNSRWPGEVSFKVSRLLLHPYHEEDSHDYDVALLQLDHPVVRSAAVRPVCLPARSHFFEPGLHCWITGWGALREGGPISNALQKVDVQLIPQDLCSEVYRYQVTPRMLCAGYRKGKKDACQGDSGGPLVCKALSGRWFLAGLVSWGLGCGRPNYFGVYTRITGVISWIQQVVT
Method: as §1, §2, §3, §4, §5

For CC[C@H](C)[C@@H]1NC(=O)[C@@H]2CCCN2C(=O)[C@@H]2CCCN2C(=O)[C@H]([C@@H](C)CC)NC(=O)[C@H](CO)NC(=O)[C@H](CCCCN)NC(=O)[C@H](CCCCN)NC(=O)[C@@H](NC(=O)[C@H](CCCNC(=N)N)NC(=O)[C@@H](N)CCCCN)CSSC[C@@H](C(=O)N[C@@H](Cc2ccccc2)C(N)=O)NC1=O [FI, Lys-Arg-Cys(&)-Lys-Lys-Ser-Ile-Pro-Pro-Ile-Cys(&)-Phe-NH2, reference compound] (H-KRCKKSIPPICF-NH2; disulfide 3-11; N-terminus assumed), the “activity against MT1” value (matriptase-1 (MT1)) is given as “not active”, the Ki (furin) is given as 0.49 nM and the “activity in assay with MT2” value (matriptase-2 (MT2)) is given as “only irrelevant activity”.

For CC[C@H](C)[C@@H]1NC(=O)[C@@H]2CCCN2C(=O)[C@@H]2CCCN2C(=O)[C@H]([C@@H](C)CC)NC(=O)[C@H](CO)NC(=O)[C@H](CCCCN)NC(=O)[C@H](CCCCN)NC(=O)[C@@H](NC(=O)[C@H](CCCNC(=N)N)NC(=O)[C@H](CCCNC(=N)N)NC(=O)[C@@H](N)CCCNC(=N)N)CSSC[C@@H](C(=O)N[C@@H](Cc2ccccc2)C(N)=O)NC1=O [inhibitor 3, Arg-Arg-Arg-Cys(&)-Lys-Lys-Ser-Ile-Pro-Pro-Ile-Cys(&)-Phe-NH2] (H-RRRCKKSIPPICF-NH2; disulfide 4-12), the “activity against MT1” value (matriptase-1 (MT1)) was “not active” and the “activity in assay with MT2” value (matriptase-2 (MT2)) was “only irrelevant activity”.

In the case of CC[C@H](C)[C@@H]1NC(=O)[C@@H]2CCCN2C(=O)[C@@H]2CCCN2C(=O)[C@H]([C@@H](C)CC)NC(=O)[C@H](CO)NC(=O)[C@H](CCCCN)NC(=O)[C@H](CCCCN)NC(=O)[C@@H]2CSSC[C@H](NC1=O)C(=O)N[C@@H](Cc1ccccc1)C(=O)N[C@@H](CCCCN)C(=O)N[C@@H](CCCNC(=N)N)C(=O)N[C@@H](CCCNC(=N)N)C(=O)N2 [inhibitor 5, &^1Lys-Arg-Arg-Cys(&^2)-Lys-Lys-Ser-Ile-Pro-Pro-Ile-Cys(&^2)-Phe&^1] (cyclo(KRRCKKSIPPICF); disulfide 4-12), the “activity against MT1” value (matriptase-1 (MT1)) is reported as “not active” and the “activity in assay with MT2” value (matriptase-2 (MT2)) is reported as “only irrelevant activity”.

For CC[C@H](C)[C@@H]1NC(=O)[C@@H]2CCCN2C(=O)[C@@H]2CCCN2C(=O)[C@H]([C@@H](C)CC)NC(=O)[C@H](CO)NC(=O)[C@H](CCCCN)NC(=O)[C@H](CCCCN)NC(=O)[C@@H]2CSSC[C@H](NC1=O)C(=O)N[C@@H](Cc1ccccc1)C(=O)N[C@@H](CCCNC(=N)N)C(=O)N[C@@H](CCCNC(=N)N)C(=O)N[C@@H](CCCNC(=N)N)C(=O)N2 [inhibitor 6, &^1Arg-Arg-Arg-Cys(&^2)-Lys-Lys-Ser-Ile-Pro-Pro-Ile-Cys(&^2)-Phe&^1] (cyclo(RRRCKKSIPPICF); disulfide 4-12), the “activity against MT1” value (matriptase-1 (MT1)) was “not active” and the “activity in assay with MT2” value (matriptase-2 (MT2)) was “only irrelevant activity”.
